Patent publication US12116343B2, “Inhibitors of APOL1 and methods of using same” (Vertex Pharmaceuticals Incorporated, priority 2020, dated 2024)

The compounds below were run against T1, G1 APOL1 (Homo sapiens, UniProt O14791, I384M/S342G) (assay: Acute APOL1 Thallium Assay with inducible stable clones of HEK 293 cells). Conditions: HEK 293 T-Rex cells expressing G1 APOL1; read-out: Thallium Assay (IC50).
T1 construct: expressed in transfected cells
T1 sequence (O14791 28-398 S342G/I384M): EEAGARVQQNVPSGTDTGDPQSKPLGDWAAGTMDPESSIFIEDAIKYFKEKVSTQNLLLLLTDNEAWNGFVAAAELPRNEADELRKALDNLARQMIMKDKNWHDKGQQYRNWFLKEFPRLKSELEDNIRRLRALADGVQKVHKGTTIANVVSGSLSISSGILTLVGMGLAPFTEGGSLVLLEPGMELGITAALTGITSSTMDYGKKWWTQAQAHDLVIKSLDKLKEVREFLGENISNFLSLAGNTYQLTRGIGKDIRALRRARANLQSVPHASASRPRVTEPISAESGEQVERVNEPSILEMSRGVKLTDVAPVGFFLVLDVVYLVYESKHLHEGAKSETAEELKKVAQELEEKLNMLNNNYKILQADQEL
Assay type: cell-based
Excerpt: Acute APOL1 Thallium Assay with Inducible Stable Clones of HEK 293 Cells
Apolipoprotein L1 (APOL1) proteins form potassium-permeable cation pores in the plasma membrane. APOL1 risk variants (G1 and G2) induce greater potassium flux than G0 in HEK293 cells. This assay exploits the permeability of thallium (Tl+) through ligand-gated potassium channels. The dye produces a bright fluorescent signal upon binding to Tl+ conducted through potassium channels. The intensity of the Tl+ signal is proportional to the number of potassium channels in the open state. Therefore, it provides a functional indication of the potassium channel activities. During the initial dye-loading step, the Tl+ indicator dye as an acetoxymethyl (AM) ester enters the cells through passive diffusion. Cytoplasm esterases cleave the AM ester and relieve its active thallium-sensitive form. The cells are then stimulated with Tl+. The increase of fluorescence in the assay represents the influx of Tl+ into the cell specifically through the potassium channel (i.e. through APOL1 pores), providing a functional measurement of potassium channel/pore activity. The Thallium assay is conducted with cells expressing G1 APOL1.
APOL1 Cell Line (HEK T-Rex Stable Inducible Cell Line) • HEK T-Rex System • Tetracycline (Tet) inducible mammalian expression system. • Stably express the Tet repressor to regulate transcription. • Expression under the full-length CMV promoter. • APOL1 stable inducible cell line Clone used: G1 DC3.25
Tissue Culture Media • Cell Culture Medium • DMEM+10% FBS+P/S+5 μg/mL blasticidin+1 μg/mL puromycin. • 500 mL DMEM+55 mL FBS+5 mL P/S+280 μL blasticidin S HCl (10 mg/mL)+56 μL puromycin (10 mg/mL). • Cell Assay Medium • DMEM with 2% FBS+pen strep.
Instruments and Equipment • Nuaire cell culture hood, Cat. No. 540-600 • 37° C./5% CO2 incubator link to robotic arm, Liconic: STX110 • Molecular Devices FLIPR^Tetra High throughput cellular screening system, Cat. No. FT0324, Molecular Devices • ThermoFisher MultiDrop 384, Cat. No. 5840300 • Biotek Microfill, Cat. No. ASF1000A-4145 • BioRad TC10 cell counter, Cat. No. 145-0010 Assay Procedures
Cells Scaled Up from Frozen Vials • APOL1 G1 3.25 (HEK293 T-Rex) frozen vials: 5 million cells per vial • Step 1, Day 1: Defrost frozen vial into T-225. • Step 2, Day 5: (when 85% confluent): Split one T-225 at 3×10^6 cells per flask. • Step 3, Day 8: Splits cells to set up for the assay plates as described below.
T-Rex APOL1 HEK cells are split twice per week to keep the confluence state below 85% of the culture flask surface area. Cells can be kept until passage 25. • Cell Culture Medium • DMEM high glucose+10% FBS, +P/S, +5 μg/mL blasticidin, +1 μg/mL puromycin. • 500 mL DMEM, +55 mL FBS, +5 mL P/S, +280 μL blasicidin 10 mg/mL, +56 μL Puromycin 10 mg/mL. • Assay Media • Opti-MEM reduced serum medium from Invitrogen.
Preparation of Cell Assay Plates • Culture medium is removed from the x cm^2 T-flask by aspiration. • The cell monolayer is rinsed with PBS 1× at room temperature. PBS is removed by aspiration. • Cells are trypsinized using Trypsin. • The flasks are incubated at room temperature for 2-3 minutes. • Complete DMEM medium is then added. Cell suspension is then transferred to a 50 mL Falcon polypropylene tube. • Cells are then counted using a Biorad TC10 cell counter and the required amount of cells are centrifuged at 1200 RPM for 5 minutes. Required amount is 1.3×10^6 cells/mL APOL1 T-Rex HEK cells. • The pellet is suspended in the assay medium. • Using the MultiDrop, add 20 μL to each well (corresponds to 26000 cells total per well) of a 384-well black, transparent, flat bottom Poly-D coated plate. • Tetracycline as prepared in the following section is added to the cells before plating to induce APOL1 expression. • Plates are left at room temperature for 20 to 30 minutes before incubation at 37° C. and 5% CO2. […]

Row | SMILES | IC50 [nM]
1 | C[C@H](O)[C@H](CO)NC(=O)[C@H]1C[C@@H](c2c(-c3ccc(F)cc3)[nH]c3c(F)cc(F)cc32)C1 [Compound 245] | > 1000
2 | O=C(N[C@@H](CO)C(F)F)[C@H]1C[C@H](c2c(-c3ccc(F)cc3)[nH]c3c(F)cc(F)cc32)C1 [Compound 230] | < 250
3 | CC[C@@H](CO)NC(=O)[C@H]1C[C@@H](c2c(-c3ccc(F)cc3)[nH]c3c(F)cc(F)cc32)C1 [Compound 257] | > 1000
4 | O=C(NC(CO)(CO)CO)[C@H]1C[C@H](c2c(-c3ccc(F)cc3)[nH]c3c(F)cc(F)cc32)C1 [Compound 226] | < 250
5 | CC(O)[C@H](CO)NC(=O)[C@H]1C[C@@H](c2c(-c3ccc(F)cc3)[nH]c3c(F)cc(F)cc32)C1 (some centres unmarked) [Compound 270] | > 1000
6 | Cn1cnc(CNC(=O)[C@H]2C[C@@H](c3c(-c4ccc(F)cc4)[nH]c4c(F)cc(F)cc43)C2)c1 [Compound 261] | > 1000
7 | COCCNC(=O)[C@H]1C[C@@H](c2c(-c3ccc(F)cc3)[nH]c3c(F)cc(F)cc32)C1 [Compound 242] | > 1000
8 | Cn1cnc(CNC(=O)C2(F)CC(c3c(-c4ccc(F)cc4)[nH]c4c(F)cc(F)cc34)C2)c1 (centres unmarked) [Compound 286] | < 250
9 | O=C(NCCO)C1CC(c2c(-c3ccc(F)cc3)[nH]c3c(F)cc(C(F)(F)F)cc23)C1 (centres unmarked) [Compound 279] | 250 to 1000
10 | NC(=O)CNC(=O)[C@H]1C[C@@H](c2c(-c3ccc(F)cc3)[nH]c3c(F)cc(F)cc32)C1 [Compound 250] | > 1000
11 | Cc1ccn(CCNC(=O)[C@H]2C[C@@H](c3c(-c4ccc(F)cc4)[nH]c4c(F)cc(F)cc43)C2)n1 [Compound 263] | 250 to 1000
12 | Cn1nccc1CNC(=O)[C@H]1C[C@@H](c2c(-c3ccc(F)cc3)[nH]c3c(F)cc(F)cc32)C1 [Compound 265] | > 1000

Same assay, conditions: Table 24, Compounds 287 to 465; read-out: Thallium Assay (IC50)

Row | SMILES | IC50 [nM]
13 | CCC(O)CNC(=O)O[C@H]1C[C@H](c2c(-c3ccc(F)cc3)[nH]c3c(F)cc(F)cc32)C1 (some centres unmarked) [Compound 388] | > 1000
14 | C[C@H](O)CNC(=O)C1CC(Cc2c(-c3ccc(F)cc3)[nH]c3c(F)cc(F)cc23)C1 (some centres unmarked) [Compound 300] | > 1000
15 | O=C(NCC1(CO)CC1)C1CC(Cc2c(-c3ccc(F)cc3)[nH]c3c(F)cc(F)cc23)C1 (centres unmarked) [Compound 323] | > 1000
16 | O=C(NC1CC1)O[C@H]1C[C@H](c2c(-c3ccc(F)cc3)[nH]c3c(F)cc(F)cc32)C1 [Compound 358] | 250 to 1000
17 | CON(C)C(=O)CNC[C@H]1C[C@H](c2c(-c3ccc(F)cc3)[nH]c3c(F)cc(F)cc32)C1 [Compound 450] | 250 to 1000
18 | O=C(CNC[C@H]1C[C@H](c2c(-c3ccc(F)cc3)[nH]c3c(F)cc(F)cc32)C1)NC1CC1 [Compound 449] | 250 to 1000
19 | O=C(N[C@H](CO)C(F)(F)F)O[C@H]1C[C@H](c2c(-c3ccc(F)cc3)[nH]c3c(F)cc(F)cc32)C1 [Compound 362] | > 1000
20 | N#CC(CO)NC(=O)C1CC(Cc2c(-c3ccc(F)cc3)[nH]c3c(F)cc(F)cc23)C1 (centres unmarked) [Compound 303] | > 1000
21 | CC(C)C[C@@H](CO)NC(=O)C1CC(Cc2c(-c3ccc(F)cc3)[nH]c3c(F)cc(F)cc23)C1 (some centres unmarked) [Compound 347] | > 1000
22 | O=C(NCC1CCOC1)O[C@H]1C[C@H](c2c(-c3ccc(F)cc3)[nH]c3c(F)cc(F)cc32)C1 (some centres unmarked) [Compound 384] | > 1000
23 | O=C(NC[C@H]1C[C@H](c2c(-c3ccc(F)cc3)[nH]c3c(F)cc(F)cc32)C1)N[C@H]1CC[C@@H]1O [Compound 402] | > 1000
24 | C[C@@H](O)CNC(=O)C1CC(Cc2c(-c3ccc(F)cc3)[nH]c3c(F)cc(F)cc23)C1 (some centres unmarked) [Compound 307] | > 1000
25 | CC1CC(NC(=O)NC[C@H]2C[C@H](c3c(-c4ccc(F)cc4)[nH]c4c(F)cc(F)cc43)C2)C(=O)O1 (some centres unmarked) [Compound 395] | > 1000
26 | CC(C)C(CO)NC(=O)O[C@H]1C[C@H](c2c(-c3ccc(F)cc3)[nH]c3c(F)cc(F)cc32)C1 (some centres unmarked) [Compound 380] | > 1000
27 | Cc1ccc(CNC(=O)O[C@H]2C[C@H](c3c(-c4ccc(F)cc4)[nH]c4c(F)cc(F)cc43)C2)o1 [Compound 375] | > 1000
28 | Cn1cnc(CNC(=O)C2CC(Cc3c(-c4ccc(F)cc4)[nH]c4c(F)cc(F)cc34)C2)c1 (centres unmarked) [Compound 314] | > 1000

Row | SMILES | IC50 [nM]
29 | CC1(O)CC(NC(=O)O[C@H]2C[C@H](c3c(-c4ccc(F)cc4)[nH]c4c(F)cc(F)cc43)C2)C1 (some centres unmarked) [Compound 361] | > 1000
30 | O=C(NCc1cnco1)C1CC(Cc2c(-c3ccc(F)cc3)[nH]c3c(F)cc(F)cc23)C1 (centres unmarked) [Compound 337] | > 1000
31 | Cc1c(CNC(=O)C2CC(Cc3c(-c4ccc(F)cc4)[nH]c4c(F)cc(F)cc34)C2)cnn1C (centres unmarked) [Compound 333] | > 1000
32 | C[C@H](NC(=O)C1CC(Cc2c(-c3ccc(F)cc3)[nH]c3c(F)cc(F)cc23)C1)C(C)(C)O (some centres unmarked) [Compound 329] | > 1000
33 | O=C(NC1CC(O)C1)O[C@H]1C[C@H](c2c(-c3ccc(F)cc3)[nH]c3c(F)cc(F)cc32)C1 (some centres unmarked) [Compound 383] | > 1000
34 | CNC(=O)C(C)NCC1CC(c2c(-c3ccc(F)cc3)[nH]c3c(F)cc(F)cc23)C1 (mixture of isomers) [Compound 436] | 250 to 1000
35 | C[C@@H](CO)NC(=O)N[C@H]1C[C@H](c2c(-c3ccc(F)cc3)[nH]c3c(F)cc(F)cc32)C1 [Compound 295, 1-((1r,3S)-3-(5,7-difluoro-2-(4-fluorophenyl)-1H-indol-3-yl)cyclobutyl)-3-((S)-1-hydroxypropan-2-yl)urea] | 250 to 1000
36 | COC1CC1NC(=O)O[C@H]1C[C@H](c2c(-c3ccc(F)cc3)[nH]c3c(F)cc(F)cc32)C1 (some centres unmarked) [Compound 376] | > 1000
37 | O=C(Nc1ccc[nH]c1=O)C1CC(Cc2c(-c3ccc(F)cc3)[nH]c3c(F)cc(F)cc23)C1 (centres unmarked) [Compound 339] | > 1000
38 | CN(CC1CC(c2c(-c3ccc(F)cc3)[nH]c3c(F)cc(F)cc23)C1)C(=O)N1CCC1 (centres unmarked) [Compound 432] | > 1000
39 | O=C(NCC1(O)COC1)NC[C@H]1C[C@H](c2c(-c3ccc(F)cc3)[nH]c3c(F)cc(F)cc32)C1 [Compound 398] | > 1000
40 | O=C(NCC1CCCO1)C1CC(Cc2c(-c3ccc(F)cc3)[nH]c3c(F)cc(F)cc23)C1 (centres unmarked) [Compound 321] | > 1000
41 | C[C@@H](NCC1CC(c2c(-c3ccc(F)cc3)[nH]c3c(F)cc(F)cc23)C1)C(=O)N(C)C (some centres unmarked) [Compound 438] | > 1000
42 | CC(C)(NCC1CC(c2c(-c3ccc(F)cc3)[nH]c3c(F)cc(F)cc23)C1)C(=O)NCC(F)(F)F (centres unmarked) [Compound 442] | > 1000
43 | O=C(N[C@H]1CCOC1=O)C1CC(Cc2c(-c3ccc(F)cc3)[nH]c3c(F)cc(F)cc23)C1 (some centres unmarked) [Compound 305] | > 1000
44 | O=C(Nc1c[nH][nH]c1=O)C1CC(Cc2c(-c3ccc(F)cc3)[nH]c3c(F)cc(F)cc23)C1 (centres unmarked) [Compound 310] | > 1000
